Test results from the Kinase Knowledgebase extract (Sharma et al. 2016).

Target: CDK2 (human) (UniProt P24941)
Assay: Enzyme Assay

Row | Structure (SMILES) | IC50 [µM]
1 | COc1ccc(CNC=C2C(=O)NC(=O)c3ccc(-c4ccc5ccccc5c4)cc32)cc1O | 50
2 | COc1cnc(CNC=C2C(=O)NC(=O)c3ccc(-n4cccc4)cc32)cc1O | 2.4
3 | C=CCOc1ccc(CN/C=C2\C(=O)NC(=O)c3ccc(Br)cc32)cc1O | 29
4 | O=C1NC(=O)c2ccccc2/C1=C/Nc1ccc(CN2CCCCC2)cc1 | 23
5 | O=C1NC(=O)c2ccc(Br)cc2/C1=C/NCc1ccc(OCCO)c(O)c1 | 50
6 | CC(C)(C)c1ccc2c(c1)C(=CNCc1ccc(-c3ccoc3)c(O)c1)C(=O)NC2=O | 13.1
7 | O=C1NC(=O)c2ccc(-c3ccoc3)cc2/C1=C/NCc1ccc(OC(F)F)c(O)c1 | 50
8 | CC(C)(C)c1ccc2c(c1)C(=CNCc1cc(O)ccc1-c1ccoc1)C(=O)NC2=O | 13.1
9 | CCCOc1ccc(CN/C=C2\C(=O)NC(=O)c3ccc(I)cc32)nc1O | 0.7
10 | Cc1cccc(-c2ccc3c(c2)C(=CNCc2ccc(O)c(O)c2)C(=O)NC3=O)c1 | 50
11 | CC(=O)Nc1ccc(CN/C=C2\C(=O)NC(=O)c3ccc(Br)cc32)cc1O | 50
